# Results from US20250161236A1, “THYMOQUINONE AND BLACK SEED COMPOSITIONS FOR TREATING NEUROENDOCRINE CANCER IN COMBINATION WITH IMMUNOTHERAPY” (Novatek Pharmaceuticals, Inc., priority 2023, published 2025).
# B1: spartalizumab: single agent ICPI in a phase II study in refractory NEC (antibody, chains of the INN, looked up, V domains shown)
# VH: EVQLVQSGAEVKKPGESLRISCKGSGYTFTTYWMHWVRQATGQGLEWMGNIYPGTGGSNFDEKFKNRVTITADKSTSTAYMELSSLRSEDTAVYYCTRWTTGTGAYWGQGTTVTVSS
# VL: EIVLTQSPATLSLSPGERATLSCKSSQSLLDSGNQKNFLTWYQQKPGQAPRLLIYWASTRESGVPSRFSGSGSGTDFTFTISSLEAEDAATYYCQNDYSYPYTFGQGTKVEIK
# Experiments:
# breast cancer cells = conditions: cited from earlier work
# [1] = tested on: PARP cleavage in BON-1 cells; test: Western blotting for cleaved PARP; assay type: cell-based, human; conditions: 3 uM or 6 uM TQ, 72 h
# Protocol: (§1) About 30,000 BON-1 cells were grown in triplicate in 6 well plates overnight. The next day cells were exposed to 3 uM or 6 uM TQ (or control) for 72 h followed by Annexin V FITC apoptosis analysis. See, e.g., Demchenko 2012, Exp. Oncol. 34, 263-268. In addition, BON-1 cells grown and treated under similar experimental conditions were evaluated by Western blotting for the presence of cleaved PARP-a marker of apoptosis. See, e.g., Chaitanya et al. 2010, Cell Comm. Signal. 8, 31.
# BON-1 cells [2] = test: Cell viability (MTT) assay, BON-1 cells; assay type: cell-based, human; conditions: 72 hrs
# Protocol: (§2) TQ activity was evaluated in two human pancreatic neuroendocrine tumor (pNEN) cell lines: (1) BON-1 cells, established from a lymph node metastasis of a pNET (Evers et al. 1991, Gastroenterology. 101, 303-311); and (2) QGP-1 cells, established from primary somatostatin producing pNET (Kaku et al. 1980, Gan. 71, 596-601). […] See Vandamme et al. 2015, J. Mol. Endocrinol. 54, 137-147.
# (§3) About 5000 Bon-1 or 5000 QGP-1 cells were grown in 96-well plates overnight. On the following day, the cells were exposed to the indicated concentrations of TQ for 72 hrs. At the end of the treatment period, a standard MTT assay was performed to measure cell proliferation and conversely, in the presence of TQ, the reduction in cell viability The values represent 6 replicates per dose from three independent experiments.
# QGP-1 cells = test: Cell viability (MTT) assay, QGP-1 cells; assay type: cell-based, human; conditions: 72 hrs
# Protocol: as §2, §3
# Bon-1 (or QGP-1) cells = test: Colony formation assay; assay type: cell-based, human; conditions: 2.5 uM or 12.5 uM TQ 72 hrs, then 12 days drug free; p<0.01
# Protocol: About 500 Bon-1 (or QGP-1) cells were seeded in 6-well plates in triplicate and allowed to attach overnight. On the following day, cells were treated with 2.5 uM or 12.5 uM TQ (or control) for 72 hrs. After treatment, cells were replenished with drug free media for 12 days and subjected to 0.5% crystal violet staining. Bar diagrams (FIG. 1B) show the number of colonies at the indicated TQ concentration.
# [3] = tested on: pancreatic ductal adenocarcinoma tumor models; test: TQ inhibitory action in pancreatic ductal adenocarcinoma tumor models; assay type: cell-based
# BON-1 cells [4] = test: Annexin V FITC apoptosis analysis; assay type: cell-based, human; conditions: 3 uM or 6 uM TQ, 72 h
# Protocol: as §1
# [5] = tested on: patients with refractory poorly differentiated NEC; conditions: cited from earlier work
# [6] = tested on: patients with refractory high grade (G3) NENs; conditions: cited from earlier work
# refractory NEC patients = conditions: high-grade NEC group of 21 patients; cited from earlier work
molecule,measurement,setting,value
CCCCCCCCCOc1c(CCCC(=O)O)cc(-c2ccc(C(=O)O)cc2)cc1CCCC(=O)O [CNBDA],inhibitory effects against breast cancer cells,breast cancer cells,significant inhibitory effects
"CC1=CC(=O)C(C(C)C)=CC1=O [TQ, Thymoquinone]",PARP cleavage product (western blot),[1],dose dependent accumulation of the PARP cleavage product
same,IC50 (cell viability),BON-1 cells [2],low uM range
same,IC50 (cell viability),QGP-1 cells,low uM range
same,long term growth in colony formation assay,Bon-1 (or QGP-1) cells,suppressed long term growth
same,IC50,[3],high uM range
same,"apoptosis (Annexin V-FITC staining, flow cytometry)",BON-1 cells [4],induced significant apoptosis
nivolumab: anti-PD-1 antibody,ORR,[5]; at 8 weeks,7.2%
same,OS,[5],7.2 months
same,PFS,[5],1.8 months
pembrolizumab: anti-PD1 antibody,objective response rate (ORR),[6],5%
B1,ORR,refractory NEC patients,4.8%
same,OS,refractory NEC patients,6.8 months
same,PFS,refractory NEC patients,1.8 months
